From patent publication US20070128217A1 (priority 2003, published 2007)

Assays:
[1] = tested on: antibodies in sera from SARS patients (sera 1a, 1b, 2, 6, 37, 62, London, SARS-yellow, SARS-green); assay type: binding, human; parameters: Binding of serum 6 to linear peptides of protein X1 of SARS-CoV Urbani / Binding of serum 37 to linear peptides of protein X1 of SARS-CoV Urbani / Binding of serum 6 to looped/cyclic peptide (PEPSCAN-ELISA) / Binding of serum 37 to looped/cyclic peptide (PEPSCAN-ELISA) / Binding of serum 37 to looped/cyclic peptides of protein X1 of SARS-CoV Urbani / Binding of serum 6 to linear peptides of protein X2 / Binding of serum 37 to linear peptides of protein X2 / Binding of serum 37 to looped/cyclic peptides of protein X2 of SARS-CoV Urbani / Binding of serum 6 to linear peptides of protein M of SARS-CoV Urbani / Binding of serum 37 to linear peptides of protein M of SARS-CoV Urbani / Binding of serum 6 to looped/cyclic peptides of protein M of SARS-CoV Urbani / Binding of serum 37 to looped/cyclic peptides of protein M of SARS-CoV Urbani / Binding of serum 6 to linear peptides of protein X3 of SARS-CoV Urbani / Binding of serum 37 to linear peptides of protein X3 of SARS-CoV Urbani / Binding of serum 37 to looped/cyclic peptides of protein X3 of SARS-CoV Urbani / Binding of serum 6 to linear peptides of protein X4 of SARS-CoV Urbani / Binding of serum 37 to linear peptides of protein X4 of SARS-CoV Urbani / Binding of serum 37 to looped/cyclic peptides of protein X4 of SARS-CoV Urbani / Binding of serum 6 to linear peptides of protein X5 of SARS-CoV Urbani / Binding of serum 37 to linear peptides of protein X5 of SARS-CoV Urbani / Binding of serum 37 to looped/cyclic peptides of protein X5 of SARS-CoV Urbani / Binding of serum 6 to linear peptides of protein N of SARS-CoV Urbani / Binding of serum 37 to linear peptides of protein N of SARS-CoV Urbani / Binding of serum 6 to linear peptide (PEPSCAN-ELISA) / Binding of serum 1a to looped/cyclic peptides of protein N of SARS-CoV Urbani / Binding of serum 1b to looped/cyclic peptides of protein N of SARS-CoV Urbani / Binding of serum 2 to looped/cyclic peptides of protein N of SARS-CoV Urbani / Binding of serum 6 to looped/cyclic peptides of protein N of SARS-CoV Urbani / Binding of serum 37 to looped/cyclic peptides of protein N of SARS-CoV Urbani / Binding of serum 62 to looped/cyclic peptides of protein N of SARS-CoV Urbani / Binding of serum London to looped/cyclic peptides of protein N of SARS-CoV Urbani / Binding of serum SARS-green to looped/cyclic peptides of protein N of SARS-CoV Urbani: unit not given here
[2] = tested on: recombinant human anti-SARS-CoV antibody 03-018; assay type: binding; parameters: Binding of antibody 03-018 to linear peptides of the N protein of SARS-CoV Urbani / Binding of antibody 03-018 to looped/cyclic peptides of the N protein of SARS-CoV Urbani: unit not given here
[3] = tested on: rabbit serum obtained by immunizing a rabbit with the SARS-CoV strain Frankfurt 1; assay type: binding; parameters: Binding of a rabbit serum to linear peptides / Binding of a rabbit serum to looped peptides / Rabbit serum linear peptides / Rabbit serum looped peptides / Binding of a rabbit serum to linear peptides of protein N of SARS-CoV Urbani (Rabbit serum linear peptides) / Binding of a rabbit serum to looped/cyclic peptides of protein N of SARS-CoV Urbani (Rabbit serum looped peptides): unit not given here
[4] = tested on: control sera (pooled serum of ten healthy LUMC hospital workers; commercial negative donor pooled serum from the Dutch bloodbank); assay type: binding, human; parameters: Binding of Control serum LUMC to linear peptides / Binding of Control serum Blood-bank to linear peptides / Binding of Control serum LUMC to looped peptides / Binding of Control Serum Blood-Bank to Looped peptides / Binding of Control serum LUMC to linear peptides of the protein M of SARS-CoV Urbani / Binding of Control serum Blood-bank to linear peptides of the protein M of SARS-CoV Urbani / Binding of Control serum LUMC to looped peptides of the protein M of SARS-CoV Urbani / Binding of Control Serum Blood-Bank to Looped peptides of the protein M of SARS-CoV Urbani: unit not given here

Sequence | Binding of serum 1a to linear peptides of protein N of SARS-CoV Urbani [1] | Binding of serum 1a to looped/cyclic peptides of protein N of SARS-CoV Urbani [1] | Binding of serum 1b to linear peptides of protein N of SARS-CoV Urbani [1] | Binding of serum 1b to looped/cyclic peptides of protein N of SARS-CoV Urbani [1] | Binding of serum 2 to linear peptides of protein N of SARS-CoV Urbani [1] | Binding of serum 2 to looped/cyclic peptides of protein N of SARS-CoV Urbani [1] | Binding of serum 6 to linear peptides of protein N of SARS-CoV Urbani [1] | Binding of serum 6 to looped/cyclic peptides of protein N of SARS-CoV Urbani [1] | Binding of serum 37 to linear peptides of protein N of SARS-CoV Urbani [1] | Binding of serum 37 to looped/cyclic peptides of protein N of SARS-CoV Urbani [1] | Binding of serum 62 to linear peptides of protein N of SARS-CoV Urbani [1] | Binding of serum 62 to looped/cyclic peptides of protein N of SARS-CoV Urbani [1] | Binding of serum London to linear peptides of protein N of SARS-CoV Urbani [1] | Binding of serum London to looped/cyclic peptides of protein N of SARS-CoV Urbani [1] | Binding of serum SARS-green to linear peptides of protein N of SARS-CoV Urbani [1] | Binding of serum SARS-green to looped/cyclic peptides of protein N of SARS-CoV Urbani [1] | Binding of antibody 03-018 to linear peptides of the N protein of SARS-CoV Urbani [2] | Binding of antibody 03-018 to looped/cyclic peptides of the N protein of SARS-CoV Urbani [2] | Binding of a rabbit serum to linear peptides of protein N of SARS-CoV Urbani (Rabbit serum linear peptides) [3] | Binding of a rabbit serum to looped/cyclic peptides of protein N of SARS-CoV Urbani (Rabbit serum looped peptides) [3] | other results
KKKTDEAQPLPQRQK | 0.2 | 0.2 | 0.1 | 0.1 | 0.2 | 0.1 | 0.7 | 0.0 | 0.9 | 0.3 | 0.6 | 0.2 | 1.1 | 0.3 | 0.4 | 0.0 | 0.1 | 0.2 | 0.2 | 0.1 | Binding of serum SARS-yellow to linear peptides of protein N of SARS-CoV Urbani [1]: 1.0; Binding of serum SARS-yellow to looped/cyclic peptides of protein N of SARS-CoV Urbani [1]: 0.0; Control Serum Blood-Bank Looped peptides [4]: 0.4; Control serum Blood-bank linear peptides [4]: 0.9; Control serum LUMC linear peptides [4]: 0.8; Control serum LUMC looped peptides [4]: 0.3
RGQGVPINTNSGPDD | 0.2 | 0.2 | 0.1 | 0.1 | 0.1 | 0.2 | 0.1 | 0.1 | 0.3 | 0.3 | 0.4 | 0.2 | 0.4 | 0.2 | 0.4 | 0.2 | 0.1 | 0.2 | 0.1 | 0.0 | Binding of serum SARS-yellow to linear peptides of protein N of SARS-CoV Urbani [1]: 0.6; Binding of serum SARS-yellow to looped/cyclic peptides of protein N of SARS-CoV Urbani [1]: 0.0; Binding of Control Serum Blood-Bank to Looped peptides [4]: 0.4; Binding of Control serum Blood-bank to linear peptides [4]: 0.5; Binding of Control serum LUMC to linear peptides [4]: 0.5; Binding of Control serum LUMC to looped peptides [4]: 0.4
QGLPNNTASWFTALT | 0.2 | 0.4 | 0.1 | 0.3 | 0.2 | 0.5 | 0.1 | 0.3 | 0.6 | 0.7 | 0.7 | 0.7 | 0.4 | 0.5 | 0.2 | 0.6 | 0.1 | 0.3 | 0.1 | 0.6 | Binding of serum SARS-yellow to linear peptides of protein N of SARS-CoV Urbani [1]: 0.6; Binding of serum SARS-yellow to looped/cyclic peptides of protein N of SARS-CoV Urbani [1]: 0.7; Binding of Control Serum Blood-Bank to Looped peptides [4]: 0.8; Binding of Control serum Blood-bank to linear peptides [4]: 0.6; Binding of Control serum LUMC to linear peptides [4]: 0.7; Binding of Control serum LUMC to looped peptides [4]: 0.8
PLPQRQKKQPTVTLL | 0.2 | – | 0.1 | – | 0.2 | – | 0.2 | – | 0.5 | – | 0.6 | – | 1.0 | – | 0.2 | – | 0.1 | 0.3 | 0.1 | 0.7 | Binding of serum SARS-yellow to linear peptides of protein N of SARS-CoV Urbani [1]: 1.0; Recognition of the peptide by sera of SARS-CoV infected individuals, and form (linear, looped/cyclic) in which it is recognized [1]: recognized in looped/cyclic form; Control Serum Blood-Bank Looped peptides [4]: 1.1; Control serum Blood-bank linear peptides [4]: 0.7; Control serum LUMC linear peptides [4]: 0.5; Control serum LUMC looped peptides [4]: 1.1
SSRSRGNSRNSTPGS | – | 0.3 | – | 0.1 | – | 0.3 | – | 0.1 | – | 0.4 | – | 0.3 | – | 0.3 | – | 0.0 | 0.1 | 0.2 | 0.1 | 0.0 | Binding of serum 1a to linear peptide (PEPSCAN-ELISA) [1]: 0.8; Binding of serum 1b to linear peptide (PEPSCAN-ELISA) [1]: 0.5; Binding of serum 2 to linear peptide (PEPSCAN-ELISA) [1]: 0.1; Binding of serum 6 to linear peptide (PEPSCAN-ELISA) [1]: 0.2; Binding of serum 37 to linear peptide (PEPSCAN-ELISA) [1]: 0.6; Binding of serum 62 to linear peptide (PEPSCAN-ELISA) [1]: 0.5; Binding of serum London to linear peptide (PEPSCAN-ELISA) [1]: 0.4; Binding of serum SARS-green to linear peptide (PEPSCAN-ELISA) [1]: 0.1; Binding of serum SARS-yellow to linear peptide (PEPSCAN-ELISA) [1]: 0.5; Binding of serum SARS-yellow to looped/cyclic peptides of protein N of SARS-CoV Urbani [1]: 0.1; Binding of Control Serum Blood-Bank to Looped peptides [4]: 0.5; Binding of Control serum Blood-bank to linear peptides [4]: 0.6; Binding of Control serum LUMC to linear peptides [4]: 0.5; Binding of Control serum LUMC to looped peptides [4]: 0.5
